The structures appear in SMILES notation. A value given as a limit tells only on which side of the number the result lay.

Methionine--tRNA ligase (Escherichia coli), sequence (P00959 whole entry, looked up): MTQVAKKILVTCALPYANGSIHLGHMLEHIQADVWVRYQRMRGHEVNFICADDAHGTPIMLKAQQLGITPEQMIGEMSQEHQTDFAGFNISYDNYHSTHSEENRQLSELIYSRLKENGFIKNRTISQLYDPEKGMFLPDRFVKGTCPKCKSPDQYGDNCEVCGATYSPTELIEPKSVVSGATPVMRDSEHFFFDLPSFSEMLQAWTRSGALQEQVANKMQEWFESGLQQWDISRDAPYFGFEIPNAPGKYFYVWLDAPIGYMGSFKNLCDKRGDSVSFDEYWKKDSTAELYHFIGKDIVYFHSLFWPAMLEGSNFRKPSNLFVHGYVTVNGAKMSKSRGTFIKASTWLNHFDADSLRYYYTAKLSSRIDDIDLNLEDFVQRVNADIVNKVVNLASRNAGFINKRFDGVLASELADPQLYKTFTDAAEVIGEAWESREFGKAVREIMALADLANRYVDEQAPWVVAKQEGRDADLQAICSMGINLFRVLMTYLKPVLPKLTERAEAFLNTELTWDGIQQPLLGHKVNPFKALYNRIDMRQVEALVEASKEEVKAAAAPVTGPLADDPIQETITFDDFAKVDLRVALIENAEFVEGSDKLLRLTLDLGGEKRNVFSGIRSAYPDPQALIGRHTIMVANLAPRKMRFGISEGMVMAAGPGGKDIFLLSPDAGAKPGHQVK

One test has as its target Methionine--tRNA ligase (Escherichia coli) (UniProt P00959). Put plainly: Inhibition of [35S]methionyl incorporation by Escherichia coli methionyl-tRNA synthetase (MetRS).
Consider `CSCC[C@H](N)C(=O)OC[C@H]1O[C@@H](CCn2cnc3c(N)ncnc32)[C@H](O)[C@@H]1O` [(S)-1-{(2R,3S,4R,5S)-5-[2-(6-Amino-purin-9-yl)-ethyl]-3,4-dihydroxy-tetrahydro-furan-2-ylmethoxycarbonyl}-3-methylsulfanyl-propyl-ammonium], for which the 50% inhibitory concentration (IC50) was determined as 8.3 µM.
Same read-out and setting: the figure for `CSCC[C@H](N)C(=O)OC[C@H]1O[C@@H](Cn2cnc3c(N)ncnc32)[C@H](O)[C@@H]1O` [(S)-1-[(2R,3S,4R,5S)-5-(6-Amino-purin-9-ylmethyl)-3,4-dihydroxy-tetrahydro-furan-2-ylmethoxycarbonyl]-3-methylsulfanyl-propyl-ammonium] is 3.6 µM.
The compound `CSCC[C@H](N)C(=O)OC[C@H]1O[C@@H](n2cnc3c(N)ncnc32)[C@H](O)[C@@H]1O` [(S)-1-[(2R,3S,4R,5R)-5-(6-Amino-purin-9-yl)-3,4-dihydroxy-tetrahydro-furan-2-ylmethoxycarbonyl]-3-methylsulfanyl-propyl-ammonium] yielded an IC50 of 5 µM.
Still for that read-out and setting: to `CSCC[C@H](N)C(=O)N(O)C[C@H]1O[C@@H](CCn2cnc3c(NCc4ccccc4)ncnc32)[C@H](O)[C@@H]1O` [(S)-1-({(2R,3S,4R,5S)-5-[2-(6-Benzylamino-purin-9-yl)-ethyl]-3,4-dihydroxy-tetrahydro-furan-2-ylmethyl}-hydroxy-carbamoyl)-3-methylsulfanyl-propyl-ammonium] belongs 23 µM; to `CSCC[C@H](N)C(=O)N(O)C[C@H]1O[C@@H](Cn2nnc(-c3ccccc3)n2)[C@H](O)[C@@H]1O` [(S)-1-{[(2R,3S,4R,5S)-3,4-Dihydroxy-5-(5-phenyl-tetrazol-2-ylmethyl)-tetrahydro-furan-2-ylmethyl]-hydroxy-carbamoyl}-3-methylsulfanyl-propyl-ammonium], 17 µM; to `CSCC[C@H](N)C(=O)N(O)C[C@H]1O[C@@H](CCn2cnc3c(N)ncnc32)[C@H](O)[C@@H]1O` [(S)-1-({(2R,3S,4R,5S)-5-[2-(6-Amino-purin-9-yl)-ethyl]-3,4-dihydroxy-tetrahydro-furan-2-ylmethyl}-hydroxy-carbamoyl)-3-methylsulfanyl-propyl-ammonium], 56 µM.
On the same count and under the same terms, the figure for `CSCC[C@H](N)C(=O)OC[C@H]1O[C@@H](CCn2nnc(-c3ccccc3)n2)[C@H](O)[C@@H]1O` [(S)-1-{(2R,3S,4R,5S)-3,4-Dihydroxy-5-[2-(5-phenyl-tetrazol-2-yl)-ethyl]-tetrahydro-furan-2-ylmethoxycarbonyl}-3-methylsulfanyl-propyl-ammonium] is above 256 µM; for `CSCC[C@H](N)C(=O)N(O)C[C@H]1O[C@@H](Cn2cnc3c(NCc4ccccc4)ncnc32)[C@H](O)[C@@H]1O` [(S)-1-{[(2R,3S,4R,5S)-5-(6-Benzylamino-purin-9-ylmethyl)-3,4-dihydroxy-tetrahydro-furan-2-ylmethyl]-hydroxy-carbamoyl}-3-methylsulfanyl-propyl-ammonium] it is 63 µM; for `CSCC[C@H](N)C(=O)N(O)C[C@H]1O[C@@H](Cn2cnc3c(N)ncnc32)[C@H](O)[C@@H]1O` [(S)-1-{[(2R,3S,4R,5S)-5-(6-Amino-purin-9-ylmethyl)-3,4-dihydroxy-tetrahydro-furan-2-ylmethyl]-hydroxy-carbamoyl}-3-methylsulfanyl-propyl-ammonium] it is 26 µM.
On the same count and under the same terms, to `CSCC[C@H](N)C(=O)OC[C@H]1O[C@@H](CCn2cnc3c(NCc4ccccc4)ncnc32)[C@H](O)[C@@H]1O` [(S)-1-{(2R,3S,4R,5S)-5-[2-(6-Benzylamino-purin-9-yl)-ethyl]-3,4-dihydroxy-tetrahydro-furan-2-ylmethoxycarbonyl}-3-methylsulfanyl-propyl-ammonium] belongs 33.2 µM; to `CSCC[C@H](N)C(=O)OC[C@H]1O[C@@H](Cn2cnc3c(NCc4ccccc4)ncnc32)[C@H](O)[C@@H]1O` [(S)-1-[(2R,3S,4R,5S)-5-(6-Benzylamino-purin-9-ylmethyl)-3,4-dihydroxy-tetrahydro-furan-2-ylmethoxycarbonyl]-3-methylsulfanyl-propyl-ammonium], 16.5 µM; to `CSCC[C@H](N)C(=O)OC[C@H]1O[C@@H](Cn2nnc(-c3ccccc3)n2)[C@H](O)[C@@H]1O` [(S)-1-[(2R,3S,4R,5S)-3,4-Dihydroxy-5-(5-phenyl-tetrazol-2-ylmethyl)-tetrahydro-furan-2-ylmethoxycarbonyl]-3-methylsulfanyl-propyl-ammonium], 12.2 µM.
Compound `CSCC[C@H](N)C(=O)N(O)C[C@H]1O[C@@H](n2cnc3c(N)ncnc32)[C@H](O)[C@@H]1O` [(S)-1-{[(2R,3S,4R,5R)-5-(6-Amino-purin-9-yl)-3,4-dihydroxy-tetrahydro-furan-2-ylmethyl]-hydroxy-carbamoyl}-3-methylsulfanyl-propyl-ammonium] had an IC50 of 27 µM.
Same read-out and setting: the figure for `CSCC[C@H](N)C(=O)N(O)C[C@H]1O[C@@H](CCn2nnc(-c3ccccc3)n2)[C@H](O)[C@@H]1O` [(S)-1-({(2R,3S,4R,5S)-3,4-Dihydroxy-5-[2-(5-phenyl-tetrazol-2-yl)-ethyl]-tetrahydro-furan-2-ylmethyl}-hydroxy-carbamoyl)-3-methylsulfanyl-propyl-ammonium] is 34 µM.

The target in the next test is Isoleucine--tRNA ligase (Escherichia coli) (UniProt P00956). As to the kind of experiment: Inhibition of [3H]isoleucyl incorporation by Escherichia coli isoleucyl-tRNA synthetase (IleRS).
Isoleucine--tRNA ligase (Escherichia coli), sequence (P00956 whole entry, looked up): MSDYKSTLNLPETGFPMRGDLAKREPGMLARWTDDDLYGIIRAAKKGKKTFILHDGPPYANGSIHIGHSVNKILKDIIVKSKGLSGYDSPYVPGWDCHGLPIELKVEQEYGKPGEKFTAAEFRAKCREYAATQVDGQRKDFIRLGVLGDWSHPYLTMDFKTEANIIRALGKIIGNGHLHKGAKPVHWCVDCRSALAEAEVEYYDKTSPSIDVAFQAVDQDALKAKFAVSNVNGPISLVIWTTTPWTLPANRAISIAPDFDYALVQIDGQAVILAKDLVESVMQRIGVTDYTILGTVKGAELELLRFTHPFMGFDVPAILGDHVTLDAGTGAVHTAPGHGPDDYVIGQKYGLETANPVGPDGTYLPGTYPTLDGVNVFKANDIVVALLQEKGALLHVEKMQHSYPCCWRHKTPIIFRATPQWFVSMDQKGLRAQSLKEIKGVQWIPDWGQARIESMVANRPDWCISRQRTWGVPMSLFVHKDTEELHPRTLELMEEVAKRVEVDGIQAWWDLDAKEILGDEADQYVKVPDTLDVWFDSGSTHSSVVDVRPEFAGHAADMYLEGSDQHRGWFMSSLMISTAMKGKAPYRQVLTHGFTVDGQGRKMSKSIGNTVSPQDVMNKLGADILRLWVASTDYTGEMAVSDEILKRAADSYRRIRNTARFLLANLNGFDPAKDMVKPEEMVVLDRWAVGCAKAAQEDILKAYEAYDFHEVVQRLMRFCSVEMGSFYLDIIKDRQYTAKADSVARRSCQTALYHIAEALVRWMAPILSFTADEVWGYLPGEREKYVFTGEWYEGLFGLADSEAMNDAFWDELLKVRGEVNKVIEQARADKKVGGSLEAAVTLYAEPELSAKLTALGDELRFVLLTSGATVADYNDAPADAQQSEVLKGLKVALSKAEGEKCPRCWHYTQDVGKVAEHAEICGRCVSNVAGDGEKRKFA
`CC[C@H](C)[C@H](N)C(=O)OC[C@H]1O[C@@H](CCn2cnc3c(N)ncnc32)[C@H](O)[C@@H]1O` [(1S,2S)-1-{(2R,3S,4R,5S)-5-[2-(6-Amino-purin-9-yl)-ethyl]-3,4-dihydroxy-tetrahydro-furan-2-ylmethoxycarbonyl}-2-methyl-butyl-ammonium] displayed an IC50 above 128 µM.
Take `CC[C@H](C)[C@H](N)C(=O)N(O)C[C@H]1O[C@@H](CCn2nnc(-c3ccccc3)n2)[C@H](O)[C@@H]1O` [(1S,2S)-1-({(2R,3S,4R,5S)-3,4-Dihydroxy-5-[2-(5-phenyl-tetrazol-2-yl)-ethyl]-tetrahydro-furan-2-ylmethyl}-hydroxy-carbamoyl)-2-methyl-butyl-ammonium]: the IC50 was above 128 µM.
On the same count and under the same terms, to `CC[C@H](C)[C@H](N)C(=O)N(O)C[C@H]1O[C@@H](Cn2cnc3c(N)ncnc32)[C@H](O)[C@@H]1O` [(1S,2S)-1-{[(2R,3S,4R,5S)-5-(6-Amino-purin-9-ylmethyl)-3,4-dihydroxy-tetrahydro-furan-2-ylmethyl]-hydroxy-carbamoyl}-2-methyl-butyl-ammonium] belongs above 128 µM.
On the same count and under the same terms, to `CC[C@H](C)[C@H](N)C(=O)OC[C@H]1O[C@@H](n2cnc3c(N)ncnc32)[C@H](O)[C@@H]1O` [(1S,2S)-1-[(2R,3S,4R,5R)-5-(6-Amino-purin-9-yl)-3,4-dihydroxy-tetrahydro-furan-2-ylmethoxycarbonyl]-2-methyl-butyl-ammonium] belongs 183 µM; to `CC[C@H](C)[C@H](N)C(=O)OC[C@H]1O[C@@H](Cn2cnc3c(N)ncnc32)[C@H](O)[C@@H]1O` [(1S,2S)-1-[(2R,3S,4R,5S)-5-(6-Amino-purin-9-ylmethyl)-3,4-dihydroxy-tetrahydro-furan-2-ylmethoxycarbonyl]-2-methyl-butyl-ammonium], above 128 µM.
On the same count and under the same terms, to `CC[C@H](C)[C@H](N)C(=O)OC[C@H]1O[C@@H](CCn2cnc3c(NCc4ccccc4)ncnc32)[C@H](O)[C@@H]1O` [(1S,2S)-1-{(2R,3S,4R,5S)-5-[2-(6-Benzylamino-purin-9-yl)-ethyl]-3,4-dihydroxy-tetrahydro-furan-2-ylmethoxycarbonyl}-2-methyl-butyl-ammonium] belongs 84 µM; to `CC[C@H](C)[C@H](N)C(=O)N(O)C[C@H]1O[C@@H](CCn2cnc3c(NCc4ccccc4)ncnc32)[C@H](O)[C@@H]1O` [(1S,2S)-1-({(2R,3S,4R,5S)-5-[2-(6-Benzylamino-purin-9-yl)-ethyl]-3,4-dihydroxy-tetrahydro-furan-2-ylmethyl}-hydroxy-carbamoyl)-2-methyl-butyl-ammonium], above 128 µM; to `CC[C@H](C)[C@H](N)C(=O)N(O)C[C@H]1O[C@@H](CCn2cnc3c(N)ncnc32)[C@H](O)[C@@H]1O` [(1S,2S)-1-({(2R,3S,4R,5S)-5-[2-(6-Amino-purin-9-yl)-ethyl]-3,4-dihydroxy-tetrahydro-furan-2-ylmethyl}-hydroxy-carbamoyl)-2-methyl-butyl-ammonium], above 128 µM.
In turn, `CC[C@H](C)[C@H](N)C(=O)OC[C@H]1O[C@@H](CCn2nnc(-c3ccccc3)n2)[C@H](O)[C@@H]1O` [(1S,2S)-1-{(2R,3S,4R,5S)-3,4-Dihydroxy-5-[2-(5-phenyl-tetrazol-2-yl)-ethyl]-tetrahydro-furan-2-ylmethoxycarbonyl}-2-methyl-butyl-ammonium] had an IC50 of 63.6 µM.
Same read-out and setting: the figure for `CC[C@H](C)[C@H](N)C(=O)N(O)C[C@H]1O[C@@H](n2cnc3c(N)ncnc32)[C@H](O)[C@@H]1O` [(1S,2S)-1-{[(2R,3S,4R,5R)-5-(6-Amino-purin-9-yl)-3,4-dihydroxy-tetrahydro-furan-2-ylmethyl]-hydroxy-carbamoyl}-2-methyl-butyl-ammonium] is 181 µM.
